Columns and labels:
Experiment in all cases: Kinase panel profiling at 1 µmol/L (MSA or IMAP), percentage inhibition
Format in all cases: biochemical
[1] = biological target: T1, panel of 255 wild-type kinases (Homo sapiens, UniProt O14920); conditions: kinase IKKβ; 1 µmol/L single concentration; read-out: %-inhibition at 1 µmol/L, IKKβ
T1 sequence (O14920 1-756): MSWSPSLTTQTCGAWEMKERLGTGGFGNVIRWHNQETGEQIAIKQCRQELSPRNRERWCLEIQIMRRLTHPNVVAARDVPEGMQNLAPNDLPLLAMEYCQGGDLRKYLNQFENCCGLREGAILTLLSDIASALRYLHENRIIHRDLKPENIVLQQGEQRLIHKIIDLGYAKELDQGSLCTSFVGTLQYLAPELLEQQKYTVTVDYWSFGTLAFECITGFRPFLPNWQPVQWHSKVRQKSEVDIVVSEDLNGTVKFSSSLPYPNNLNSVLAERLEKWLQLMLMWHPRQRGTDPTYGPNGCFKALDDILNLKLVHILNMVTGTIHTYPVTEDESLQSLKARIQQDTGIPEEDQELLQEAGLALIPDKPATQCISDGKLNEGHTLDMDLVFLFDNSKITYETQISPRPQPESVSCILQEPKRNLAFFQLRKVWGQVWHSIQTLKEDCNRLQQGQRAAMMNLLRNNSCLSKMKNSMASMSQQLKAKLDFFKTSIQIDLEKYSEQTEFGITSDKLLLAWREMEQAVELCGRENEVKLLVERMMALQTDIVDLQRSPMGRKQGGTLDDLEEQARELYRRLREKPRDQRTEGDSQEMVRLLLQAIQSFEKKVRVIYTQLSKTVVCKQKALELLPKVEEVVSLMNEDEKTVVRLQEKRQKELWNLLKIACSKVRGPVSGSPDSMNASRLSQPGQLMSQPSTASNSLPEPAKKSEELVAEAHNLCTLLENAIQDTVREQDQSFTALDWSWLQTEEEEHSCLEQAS

[2] = biological target: panel of 255 wild-type kinases (Homo sapiens, UniProt O75116); conditions: kinase ROCK2; 1 µmol/L single concentration; read-out: %-inhibition at 1 µmol/L, ROCK2
[3] = biological target: panel of 255 wild-type kinases (Homo sapiens, UniProt P23458); conditions: kinase JAK1; 1 µmol/L single concentration; read-out: %-inhibition at 1 µmol/L, JAK1
[4] = biological target: T2, panel of 255 wild-type kinases (Homo sapiens, UniProt P30530); conditions: AXL kinase assay; 1 µmol/L single concentration; read-out: %-inhibition AXL
T2 sequence (P30530 26-894): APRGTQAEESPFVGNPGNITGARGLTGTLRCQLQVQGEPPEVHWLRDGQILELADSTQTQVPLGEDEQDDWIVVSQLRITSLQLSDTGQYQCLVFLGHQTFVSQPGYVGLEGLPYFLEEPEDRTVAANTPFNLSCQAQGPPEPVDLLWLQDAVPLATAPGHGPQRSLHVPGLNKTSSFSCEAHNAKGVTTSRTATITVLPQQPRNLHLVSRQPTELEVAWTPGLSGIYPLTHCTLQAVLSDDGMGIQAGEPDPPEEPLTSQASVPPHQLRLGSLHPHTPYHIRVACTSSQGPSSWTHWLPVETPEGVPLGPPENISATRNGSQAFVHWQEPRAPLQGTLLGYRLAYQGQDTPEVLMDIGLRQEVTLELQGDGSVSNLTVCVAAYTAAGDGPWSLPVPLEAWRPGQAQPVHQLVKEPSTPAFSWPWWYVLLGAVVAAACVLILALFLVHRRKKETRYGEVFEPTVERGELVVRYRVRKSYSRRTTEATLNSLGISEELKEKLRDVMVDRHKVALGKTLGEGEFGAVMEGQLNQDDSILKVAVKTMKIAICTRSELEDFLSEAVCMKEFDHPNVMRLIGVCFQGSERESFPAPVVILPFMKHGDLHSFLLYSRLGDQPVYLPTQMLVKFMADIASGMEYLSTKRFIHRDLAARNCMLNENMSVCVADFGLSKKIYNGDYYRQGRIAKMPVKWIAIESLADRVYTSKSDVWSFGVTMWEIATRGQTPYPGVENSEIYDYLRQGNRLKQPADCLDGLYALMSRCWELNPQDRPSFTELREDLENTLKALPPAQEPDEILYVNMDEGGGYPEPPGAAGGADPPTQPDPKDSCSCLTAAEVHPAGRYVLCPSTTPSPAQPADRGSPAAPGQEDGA

[5] = biological target: panel of 255 wild-type kinases (Homo sapiens, UniProt P41240); conditions: kinase CSK; 1 µmol/L single concentration; read-out: %-inhibition at 1 µmol/L, CSK
[6] = biological target: panel of 255 wild-type kinases (Homo sapiens, UniProt P49674); conditions: kinase CK1ε; 1 µmol/L single concentration; read-out: %-inhibition at 1 µmol/L, CK1ε
[7] = biological target: T3, panel of 255 wild-type kinases (Homo sapiens, UniProt Q8IW41); conditions: MAPKAPK5; 1 µmol/L single concentration; read-out: %-inhibition, MAPKAPK5
T3 sequence (Q8IW41 1-473): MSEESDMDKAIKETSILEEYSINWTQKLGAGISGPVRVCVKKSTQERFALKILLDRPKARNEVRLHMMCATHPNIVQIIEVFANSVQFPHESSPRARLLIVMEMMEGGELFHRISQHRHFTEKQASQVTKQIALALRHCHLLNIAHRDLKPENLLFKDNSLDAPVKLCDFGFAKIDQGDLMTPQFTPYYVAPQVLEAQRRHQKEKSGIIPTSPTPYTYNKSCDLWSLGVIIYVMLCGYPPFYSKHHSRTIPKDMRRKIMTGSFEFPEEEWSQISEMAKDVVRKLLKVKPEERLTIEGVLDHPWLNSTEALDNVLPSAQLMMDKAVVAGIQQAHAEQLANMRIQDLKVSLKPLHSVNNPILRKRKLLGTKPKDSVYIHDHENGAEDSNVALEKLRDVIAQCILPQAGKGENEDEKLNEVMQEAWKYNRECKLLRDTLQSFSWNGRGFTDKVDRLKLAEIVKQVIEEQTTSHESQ

[8] = biological target: panel of 255 wild-type kinases (Homo sapiens, UniProt Q8N4C8); conditions: MINK; 1 µmol/L single concentration; read-out: %-inhibition, MINK
[9] = biological target: panel of 255 wild-type kinases (Homo sapiens, UniProt Q96GD4); conditions: AurB kinase assay; 1 µmol/L single concentration; read-out: %-inhibition AurB
[10] = test system: panel of 255 wild-type kinases; conditions: 1 µmol/L single concentration

Cn1cc(-c2cc3c(N4CCN(c5ncc([C@@](C)(N)c6ccc(F)cc6)cn5)CC4)ncnn3c2)cn1 [avapritinib]
inhibition at 1 µM [1]: 0.049% | inhibition at 1 µM [2]: 11% | inhibition at 1 µM [3]: 29% | inhibition at 1 µM [4]: 37% | inhibition at 1 µM [5]: 2.57% | inhibition at 1 µM [6]: 2.14% | inhibition at 1 µM [7]: 2% | inhibition at 1 µM [8]: 4.44% | inhibition at 1 µM [9]: 20% | %-inhibition at 1 µmol/L, FYN [isoform b] ([10]; kinase FYN [isoform b]): 3% | %-inhibition at 1 µmol/L, LYNb ([10]; kinase LYNb): 83% | %-inhibition at 1 µmol/L, PKCβ2 ([10]; kinase PKCβ2): -0.278% | %-inhibition at 1 µmol/L, SRM ([10]; kinase SRM): 0.441%

Source: article PMC9516332 (Frontiers in Oncology, 2022)
